# Values of other authors, collected in patent US6806373B2, “Process for preparing leflunomide form I” (Teva Pharmaceutical Industries Ltd., priority 1999, dated 2004).
# Legend:
# [1] = water or mixtures of water and C1-C4 alcohols, acetone or methyl ethyl ketone, even with heating (<40° C.)
# [2] = solid form, according to AU-A-78870/98
# [3] = according to AU-A-78870/98
solubility in suspension solvents [1],kinetically stable up to (temperature) [2],SMILES,dissolution in water compared with Form I [3]
poorly soluble,,Cc1oncc1C(=O)Nc1ccc(C(F)(F)F)cc1 [leflunomide],
,up to 40 °C,Cc1oncc1C(=O)Nc1ccc(C(F)(F)F)cc1 [Form II],more readily dissolves in water than does Form I
